# Assay results published in article PMC10817174, “Integrated drug response prediction models pinpoint repurposed drugs with effectiveness against rhabdomyosarcoma” (PLOS ONE, 2024).
# “Also recorded” adds a separate entry of the source. Read-outs that look alike come from different tables or passages of the source.
# B1: rTRAIL: GDSC anti-cancer compound (protein, UniProt P50591 1-281, looked up)
# Tumor necrosis factor ligand …: MAMMEVQGGPSLGQTCVLIVIFTVLLQSLCVAVTYVYFTNELKQMQDKYSKSGIACFLKEDDSYWDPNDEESMNSPCWQVKWQLRQLVRKMILRTSEETISTVQEKQQNISPLVRERGPQRVAAHITGTRGRSNTLSSPNSKNEKALGRKINSWESSRSGHSFLSNLHLRNGELVIHEKGFYYIYSQTYFRFQEEIKENTKNDKQMVQYIYKYTSYPDPILLMKSARNSCWSKDAEYGLYSIYQGGIFELKENDRIFVSVTNEHLIDMDHEASFFGAFLVG
# What was measured:
# [1] = system: GDSC-SJCRH30 cell line; conditions: cited from earlier work; for Iorio_SJCRH30: Table S2, published drug response ref Iorio et al. (2016)
# [2] = system: GDSC-RD cell line; conditions: cited from earlier work; for Iorio_RD: Table S2, published drug response ref Iorio et al. (2016)
# [3] = system: CCD-18Co (human colon fibroblast) cells; experiment: MTT cell viability assay in normal control cells; format: cell-based; conditions: for selective anti-cancer activity against the RMS cell lines: based on the CCD-18Co control results; for IC50(μM) CCD-18Co / IC50: normal cell control, 24 h
# Description: (§1) The RD (human embryonal rhabdomyosarcoma) and CCD-18Co (human colon fibroblast) cell lines were purchased from the Korean Cell Line Bank (KCLB). SJCRH30 (human alveolar rhabdomyosarcoma) cell line was purchased from the American Type Culture Collection (ATCC). RD and CCD-18Co cells were maintained in Dulbecco’s Modified Eagle’s Medium (DMEM; Gibco) supplemented with 10% fetal bovine serum (FBS; Gibco) and 1% penicillin/streptomycin (P/S; Gibco). SJCRH30 cells were maintained in Roswell Park Memorial Institute medium (RPMI 1640, Gibco) supplemented with 10% FBS and 1% P/S. Cells were grown in a humidified chamber containing 5% CO2 at 37°C. Cell line authentication was performed by short tandem repeat profile using PowerPlex® 18D system (Promega Corporation) and sequencing apparatus Applied Biosystems 3130xl Genetic Analyzer (Applied Biosystem) according to manufacturer’s protocol.
# (§2) SJCRH30, RD, and CCD-18Co cells were seeded at 2 × 10^4 cells/well in 96-well plates. The candidate drugs were treated for 24 h. AZ628, BIX02189, fedratinib, nutlin-3a, VX-11e, SB590885, NSC207895, tubastatin A, CX-5461, navitoclax, GSK1070916 and the FDA-approved drug library were purchased from Selleckchem. GW.44175 was purchased from Cayman chemical. MTT (3-(4,5-Dimethylthiazol-2-yl)-2,5-Diphenyltetrazolium bromide, Sigma) cell viability detection reagent diluted in serum free medium was added to each well and incubated for 2 h at 37°C. The supernatant was removed, and 50 μL DMSO was added to dissolve the precipitate. Absorbance was measured at 570 nm using a Molecular Devices VersaMax microplate reader and SoftMax® Pro 5 software. IC50 was calculated with GraphPad Prism 7 software.
# [4] = system: SJCRH30 (human alveolar rhabdomyosarcoma) cells; experiment: MTT cell viability assay in SJCRH30 cells; format: cell-based; conditions: 24 h; for anti-proliferation / anti-cancer activity in SJCRH30 cells: in words; for IC50: SJ-S drugs, SJCRH30 cells, read-out: IC50(μM) RMS
# Description: as §1, §2
# [5] = system: SJCRH30 cells; experiment: Caspase-3/7 activity assay in SJCRH30 cells; format: cell-based, human; conditions: 24 h
# Method: (§3) The activity of caspase-3/7 was detected with the CellEvent^TM Caspase-3/7 Green detection kit (Thermo Fisher Scientific, C10423), following the manufacturer’s instructions. SJCRH30 and RD cells were seeded at 2 × 10^4 cells/well in 96-well plates. […] Stained cells were observed under fluorescent microscopy (LEICA, DMI3000 B). Drugs were treated in triplicates and 4 pictures of each well were captured. The percentage of caspase-3/7 positive cells per field of view was quantified using ImageJ software.
# [6] = system: RD (human embryonal rhabdomyosarcoma) cells; experiment: MTT cell viability assay in RD cells; format: cell-based; conditions: 24 h; for anti-proliferation / anti-cancer activity in RD cells: in words; for IC50: RD-S drugs, RD cells, read-out: IC50(μM) RMS
# Description: as §1, §2
# [7] = system: RD cells; experiment: Caspase-3/7 activity assay in RD cells; format: cell-based, human; conditions: 24 h
# Method: as §3
# [8] = system: Ewing’s sarcoma; design: method as in PMID 26095524; conditions: Ewing’s sarcoma ref 42; cited from earlier work
# [9] = heavily pre-treated soft-tissue sarcoma patients ref 43; cited from earlier work
# [10] = system: uterine sarcoma; conditions: in vitro and in vivo ref 44; cited from earlier work
# [11] = Homo sapiens, Rhabdomyosarcoma cell
Molecule,Iorio_SJCRH30 [1],Iorio_RD [2],anti-proliferation / anti-cancer activity in SJCRH30 cells [4],also measured
O=C(/C=C/c1cccc(S(=O)(=O)Nc2ccccc2)c1)NO [Belinostat],R,R,higher anti-cancer activity; also recorded: reduced cells proliferation to a greater degree than the clinical drugs; also recorded: sensitive,"GDSC-SJCRH30 drug response [1]: resistant; selective anti-cancer activity against the RMS cell lines [3]: selective anti-cancer activity; IC50(μM) CCD-18Co ([3]; MTT): No cytotoxicity; IC50 [4, 11]: 0.146 µM; IC50 [4]: 0.146 µM; caspase-3/7 activation [5]: increased level of caspase-3/7 activation"
CN1CCN(c2ccc([N+](=O)[O-])c3no[n+]([O-])c23)CC1 [NSC207895],R,S,–,anti-proliferation / anti-cancer activity in RD cells [6]: higher anti-cancer activity; also recorded: effectively inhibited cell proliferation compared to vincristine and cyclophosphamide; IC50 [6]: 6.57 µM; caspase-3/7 activation [7]: significantly induced the activation of caspase-3/7; apoptosis induction [8]: induces p53-independent apoptosis; selective anti-cancer activity against the RMS cell lines [3]: selective anti-cancer activity; IC50(μM) CCD-18Co ([3]; MTT): No cytotoxicity
Cc1cnc(Nc2ccc(F)cc2Cl)nc1-c1c[nH]c(C(=O)N[C@H](CO)c2cccc(Cl)c2)c1 [VX-11e],R,S,–,anti-proliferation / anti-cancer activity in RD cells [6]: higher anti-cancer activity; IC50 [6]: 3.79 µM; IC50 ([3]; MTT): 4.04 µM
CCc1cc2c(cc1N1CCC(N3CCOCC3)CC1)C(C)(C)c1[nH]c3cc(C#N)ccc3c1C2=O [Alectinib],S,R,higher anti-cancer activity,"IC50 ([3]; Homo sapiens, CCD-18Co, MTT): 5.96 µM; IC50 [4, 11]: 3.21 µM"
CCn1cc(-c2ccnc3[nH]c(-c4cccc(CN(C)C)c4)cc23)c(-c2ccc(NC(=O)N(C)C)cc2)n1 [GSK1070916],R,R,higher anti-cancer activity,"IC50(μM) CCD-18Co ([3]; MTT): No cytotoxicity; IC50 [4, 11]: 1.4 µM"
O=C(CCCCCCC(=O)Nc1ccccc1)NO [Vorinostat],S,–,higher anti-cancer activity; also recorded: reduced cells proliferation to a greater degree than the clinical drugs,patients with long-term disease stabilization [9]: 6 of the 40; caspase-3/7 activation [5]: increased level of caspase-3/7 activation; uterine sarcoma growth [10]: inhibited the uterine sarcoma growth
CN(C)CCOc1ccc(-c2nc(-c3ccncc3)c(-c3ccc4c(c3)CC/C4=N\O)[nH]2)cc1 [SB590885],R,–,–,"anti-proliferation / anti-cancer activity in RD cells [6]: higher anti-cancer activity; IC50 ([6]; Homo sapiens): 2.52 µM; IC50 ([3]; Homo sapiens, CCD-18Co, MTT): 4.88 µM"
CC1(C)CCC(c2ccc(Cl)cc2)=C(CN2CCN(c3ccc(C(=O)NS(=O)(=O)c4ccc(N[C@H](CCN5CCOCC5)CSc5ccccc5)c(S(=O)(=O)C(F)(F)F)c4)cc3)CC2)C1 [Navitoclax],R,–,higher anti-cancer activity,"IC50 ([3]; Homo sapiens, CCD-18Co, MTT): 0.319 µM; IC50 [4, 11]: 0.764 µM"
Cc1cnc(Nc2ccc(OCCN3CCCC3)cc2)nc1Nc1cccc(S(=O)(=O)NC(C)(C)C)c1 [fedratinib],R,R,high non-selective anti-proliferation activity; also recorded: high in vitro sensitivity,"anti-proliferation / anti-cancer activity in RD cells [6]: high non-selective anti-proliferation activity; also recorded: high in vitro sensitivity; GDSC-RD drug response [2]: resistance; toxicity toward the CCD-18Co control line ([3]; MTT, in words): toxicity toward the control line; also recorded: highly sensitive"
CC(C)c1ccccc1Cc1cc(C(=O)Nc2ccc(S(=O)(=O)c3ccccc3C(C)(C)C)cc2)c(O)c(O)c1O [TW-37],R,R,–,–
C=C(c1ccc(C(=O)O)cc1)c1cc2c(cc1C)C(C)(C)CCC2(C)C [Bexarotene],R,R,–,–
O=C(Nc1ccc(OC(F)(F)F)cc1)c1sccc1NCc1ccnc2ccccc12 [OSI-930],R,R,–,–
COc1cc2nccc(Oc3ccc(NC(=O)C4(C(=O)Nc5ccc(F)cc5)CC4)cc3)c2cc1OC [XL-184],R,R,–,–
B1,R,S,–,–
